This is an account of results in patent US5981519A, “Vinyl-pyrrolidinone cephalosporins” (Hoffman-La Roche Inc., priority 1996, dated 1999).

Converted amounts (≈) assume the structure as drawn.

A word on the MIC: it is the smallest concentration in the dilution series that meets the test's criterion for growth inhibition. A low value points to greater potency. In general, MIC90 refers to an inhibitory concentration at the 90% level, which refers to growth in some studies and to a panel of isolates in others. Low values mean greater potency, high ones weaker potency.

One test concerns S.aureus 6538 (MSSA). Description: In vitro activity, minimum inhibitory concentration, agar dilution, S. aureus 6538 (MSSA). It is filed as cell-based. The settings on record: Staphylococcus aureus, Mueller Hinton agar, inoculum=10^4 CFU/spot. The procedure: (§1) Representative compounds (A and B, above) of the present invention were tested. In vitro activity was determined by minimum inhibitory concentration by the agar dilution method in Mueller Hinton agar, inoculum=10^4 CFU/spot.
A general note: Agar dilution tests growth on a series of plates holding different concentrations.

The test system of another test is S. aureus 743 (MRSA). Nature of the test: In vitro activity, minimum inhibitory concentration, agar dilution, S. aureus 743 (MRSA). It is filed as cell-based. The settings on record: Staphylococcus aureus, Mueller Hinton agar, inoculum=10^4 CFU/spot. The procedure:
as §1

A further test has as its system S. aureus 270A (MRSA). Description: In vitro activity, minimum inhibitory concentration, agar dilution, S. aureus 270A (MRSA). It is filed as cell-based. The settings on record: Staphylococcus aureus, Mueller Hinton agar, inoculum=10^4 CFU/spot. The procedure:
as §1

Another test concerns MRSA. Nature of the test: In vitro activity, MIC90 against MRSA (n = 38), agar dilution. It is filed as cell-based. The settings on record: Staphylococcus aureus, MuellerHinton agar, inoculum: 10^5 CFU/spot. Here is the method:
as §1
*Agar dilution method on MuellerHinton agar, inoculum: 10^5 CFU/spot

A further test deals with P. aeruginosa ATCC27853. Nature of the test: In vitro activity, minimum inhibitory concentration, agar dilution, P. aeruginosa ATCC27853. It is filed as cell-based. The settings on record: Pseudomonas aeruginosa, Mueller Hinton agar, inoculum=10^4 CFU/spot. Here is the method:
as §1

In a further test the test system is S. aureus 270 A (MRSA). Description: In vivo efficacy, sc abscess model in mice infected with S. aureus 270 A (MRSA). The settings on record: 10 mg/kg ip; for Median log CFU: 3 mice, untreated 6.92. Here is the method: In vivo efficacy was determined with a sc abscess model in mice, infected with S. aureus 270 A (MRSA). The dose (ip) was 10 mg/kg. The median log of colony forming units (CFU) was determined.

As for `Nc1nc(/C(=N/O)C(=O)N[C@@H]2C(=O)N3C(C(=O)O)=C(/C=C4\CCN([C@@H]5CCNC5)C4=O)CS[C@H]23)ns1` [A, (6R, 7R)-7-[(Z)-2-(5-Amino-[1,2,4]thiadiazol-3-yl)-2-hydroxyimino-acetylamino]-8-oxo-3-[(E)-(R)-2-oxo-[1,3']bipyrrolidinyl-3-ylidenemethyl]-5-thia-1-aza-bicyclo[4.2.0]oct-2-ene-2-carboxylic acid], the minimal inhibitory concentration (MIC) against S.aureus 6538 (MSSA) came to 0.5 µg/mL (≈ 0.935 µM); in the test with S. aureus 743 (MRSA), 2 µg/mL (≈ 3.74 µM); with S. aureus 270A (MRSA) it was 2 µg/mL (≈ 3.74 µM); against P. aeruginosa ATCC27853, 2 µg/mL (≈ 3.74 µM). In the test with MRSA, the MIC90 was 4 µg/mL (≈ 7.48 µM). Moreover, in the test on S. aureus 270 A (MRSA), the “activity compared with vancomycin” value is “more active than vancomycin”. The “reduction in the number of CFUs as compared to the untreated control” value in the test on S. aureus 270 A (MRSA) is on record as “more than hundred-fold reduction”. Besides, the “Median log CFU” value in the test with S. aureus 270 A (MRSA) is on record as 4.72 log CFU.
Turning to `Nc1nc(/C(=N/O)C(=O)N[C@@H]2C(=O)N3C(C(=O)O)=C(/C=C4\CCN([C@H]5CCNC5)C4=O)CS[C@H]23)ns1` [B, (6R, 7R)-7-[(Z)-2-(5-Amino-[1,2,4]thiadiazol-3-yl)-2-hydroxyimino-acetylamino]-8-oxo-3-[(E)-(S)-2-oxo-[1,3']bipyrrolidinyl-3-ylidenemethyl]-5-thia-1-aza-bicyclo[4.2.0]oct-2-ene-2-carboxylic acid], the MIC against S.aureus 6538 (MSSA) came to 0.25 µg/mL (≈ 0.468 µM); against S. aureus 743 (MRSA) it was 2 µg/mL (≈ 3.74 µM); in the test with S. aureus 270A (MRSA), 4 µg/mL (≈ 7.48 µM); against P. aeruginosa ATCC27853, 4 µg/mL (≈ 7.48 µM). This compound registered an MIC90 with MRSA of 4 µg/mL (≈ 7.48 µM).
Consider `CN[C@H](CC(C)C)C(=O)N[C@H]1C(=O)N[C@@H](CC(N)=O)C(=O)N[C@H]2C(=O)N[C@H]3C(=O)N[C@H](C(=O)N[C@H](C(=O)O)c4cc(O)cc(O)c4-c4cc3ccc4O)[C@H](O)c3ccc(c(Cl)c3)Oc3cc2cc(c3O[C@@H]2O[C@H](CO)[C@@H](O)[C@H](O)[C@H]2O[C@H]2C[C@](C)(N)[C@H](O)[C@H](C)O2)Oc2ccc(cc2Cl)[C@H]1O` [Vancomycin, vancomycin, reference compound], for which the “Median log CFU” value in the test on S. aureus 270 A (MRSA) stood at 5.28 log CFU.
